Experimental data: the NIST ThermoML archive (doi:10.1016/j.jct.2014.03.023)
Numbers after ± are expanded uncertainties.

What was measured:
[1] = wn = mass fraction of the nth substance listed; conditions: Pendant drop shape
[2] = molar heat capacity at constant pressure; wn = mass fraction of the nth substance listed; conditions: 101 kPa, Liquid, Small sample (50 mg) DSC

CC[n+]1ccc(C)cc1.O=S(=O)([N-]S(=O)(=O)C(F)(F)F)C(F)(F)F + CCn1cc[n+](C)c1.N#CN=C=[N-]
Conditions | molar heat capacity at constant pressure, w2 = 0 [J/K/mol] | molar heat capacity at constant pressure, w2 = 0.25 [J/K/mol] | molar heat capacity at constant pressure, w2 = 0.5 [J/K/mol] | molar heat capacity at constant pressure, w2 = 0.75 [J/K/mol] | surface tension liquid-gas, w2 = 0 [mN/m] | surface tension liquid-gas, w2 = 0.25 [mN/m] | surface tension liquid-gas, w2 = 0.5 [mN/m] | surface tension liquid-gas, w2 = 0.75 [mN/m]
[1], 298.2 K | – | – | – | – | 24.3 ± 0.4 | 40.8 ± 0.7 | 45.8 ± 0.7 | 52 ± 0.8
[1], 303.2 K | – | – | – | – | 23.9 ± 0.4 | 40.3 ± 0.6 | 45.3 ± 0.7 | 51.5 ± 0.8
[1], 313.2 K | – | – | – | – | 23.1 ± 0.4 | 39.2 ± 0.6 | 44.1 ± 0.7 | 50.3 ± 0.8
[1], 323.2 K | – | – | – | – | 22.2 ± 0.4 | 38 ± 0.6 | 42.8 ± 0.7 | 49 ± 0.8
[2], 296.2 K | 627 ± 27 | 504 ± 21 | 421 ± 18 | 363 ± 15 | – | – | – | –
[2], 300.2 K | 634 ± 27 | 509 ± 22 | 425 ± 18 | 366 ± 16 | – | – | – | –
[2], 304.2 K | 637 ± 27 | 512 ± 22 | 427 ± 18 | 369 ± 16 | – | – | – | –
[2], 308.2 K | 640 ± 27 | 514 ± 22 | 430 ± 18 | 371 ± 16 | – | – | – | –
[2], 312.2 K | 644 ± 27 | 517 ± 22 | 433 ± 18 | 374 ± 16 | – | – | – | –
[2], 316.2 K | 647 ± 27 | 520 ± 22 | 436 ± 19 | 376 ± 16 | – | – | – | –
[2], 320.2 K | 649 ± 28 | 522 ± 22 | 438 ± 19 | 378 ± 16 | – | – | – | –
[2], 324.2 K | 652 ± 28 | 524 ± 22 | 441 ± 19 | 381 ± 16 | – | – | – | –
[2], 328.2 K | 655 ± 28 | 528 ± 22 | 444 ± 19 | 383 ± 16 | – | – | – | –
[2], 332.2 K | 659 ± 28 | 532 ± 23 | 448 ± 19 | 387 ± 16 | – | – | – | –
[2], 336.2 K | 665 ± 28 | 537 ± 23 | 451 ± 19 | 390 ± 17 | – | – | – | –
[2], 340.2 K | 669 ± 28 | 541 ± 23 | 455 ± 19 | 393 ± 17 | – | – | – | –
[2], 344.2 K | 674 ± 29 | 546 ± 23 | 459 ± 19 | 397 ± 17 | – | – | – | –
[2], 348.2 K | 679 ± 29 | 550 ± 23 | 463 ± 20 | 400 ± 17 | – | – | – | –
[2], 352.2 K | 685 ± 29 | 555 ± 24 | 467 ± 20 | 404 ± 17 | – | – | – | –
[2], 356.2 K | 691 ± 29 | 560 ± 24 | 472 ± 20 | 407 ± 17 | – | – | – | –
[2], 360.2 K | 697 ± 30 | 565 ± 24 | 477 ± 20 | 411 ± 17 | – | – | – | –
[2], 364.2 K | 703 ± 30 | 570 ± 24 | 481 ± 20 | 415 ± 18 | – | – | – | –
[2], 368.2 K | 708 ± 30 | 576 ± 24 | 486 ± 21 | 419 ± 18 | – | – | – | –
[2], 372.2 K | 715 ± 30 | 584 ± 25 | 492 ± 21 | 424 ± 18 | – | – | – | –
